Source: patent US7714047B2, “Process for producing aqueous fluoropolymer dispension and aqueous fluoropolymer dispersion” (Daikin Industries, Ltd., priority 2003, dated 2010)

Assay: Octanol/water partition coefficient (log P) by HPLC elution time against a working curve of standard substances
Assay type: physicochemical
Details: Tosoh ODS-120T column, acetonitrile/0.6% (by mass) aqueous HClO4 = 1/1, 40° C., UV 210 nm, standards heptanoic, octanoic, nonanoic and decanoic acid
Experimental: The octanol/water partition coefficient is the coefficient of partition between 1-octanol and water and is expressed in terms of log P [wherein P represents the ratio between the fluorine-containing surfactant (A) concentration in octanol/fluorine-containing surfactant (A) concentration in water as found upon phase separation of a fluorine-containing surfactant (A)-containing octanol/water mixture (1:1)]. The octanol/water partition coefficient is determined by the measurement method according to OECD Guideline 107. In measuring the octanol/water partition coefficient, such methods as the flask shaking method and reversed-phase high performance liquid chromatography can generally be employed.
(5) Octanol/Water Partition Coefficient
Standard substances (heptanoic acid, octanoic acid, nonanoic acid and decanoic acid) each having a known octanol/water partition coefficient were subjected to HPLC under the following conditions: column: Tosoh ODS-120T column (ø4.6 mm×250 mm), eluent: acetonitrile/0.6% (by mass) aqueous solution of HClO4=1/1 (vol/vol %), flow rate: 1.0 ml/minute, sample size: 300 μL, column temperature: 40° C., detection light: UV 210 nm. A working curve showing the relation between the elution time and the known octanol/water partition coefficient was then constructed. The coefficient in question was determined from the elution time in HPLC for the sample solution based on that working curve.

Row | Molecule | logP: octanol/water partition coefficient
1 | CF3CF2(CF2CF2)2COONH4 [Fluorine-containing surfactant 4] | 3.0
2 | N.O=C(O)C(F)(F)C(F)(F)C(F)(F)C(F)(F)C(F)(F)C(F)F [Fluorine-containing surfactant 1, H(CF2CF2)3COONH4] | 2.4
3 | N.O=C(O)C(F)(OC(F)(F)C(F)(OC(F)(F)F)C(F)(F)F)C(F)(F)F (centres unmarked) [Fluorine-containing surfactant 3, CF3O(CF(CF3)CF2O)CF(CF3)COONH4] | 3.4
4 | N.O=C(O)C(F)(F)C(F)(F)C(F)(F)C(F)(F)C(F)(F)C(F)(F)C(F)(F)F [Fluorine-containing surfactant 5, CF3(CF2CF2)3COONH4] | 3.5
5 | N.O=C(O)C(F)(OC(F)(F)C(F)(F)C(F)(F)F)C(F)(F)F (centres unmarked) [Fluorine-containing surfactant 2, C3F7OCF(CF3)COONH4] | 2.5
